The target of one test is T1, Adenosine receptor A3 (Homo sapiens, UniProt P0DMS8).
T1 sequence (P0DMS8 whole entry): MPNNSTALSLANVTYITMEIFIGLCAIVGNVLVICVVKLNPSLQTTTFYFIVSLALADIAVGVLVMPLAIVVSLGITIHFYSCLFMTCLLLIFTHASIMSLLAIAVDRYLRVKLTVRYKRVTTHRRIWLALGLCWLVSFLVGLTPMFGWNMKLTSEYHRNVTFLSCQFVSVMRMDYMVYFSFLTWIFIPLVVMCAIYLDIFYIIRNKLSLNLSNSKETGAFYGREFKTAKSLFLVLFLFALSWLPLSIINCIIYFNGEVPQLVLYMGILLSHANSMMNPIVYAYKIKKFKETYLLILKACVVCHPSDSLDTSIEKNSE

Test [1] concerns the target Beta-1 adrenergic receptor (Homo sapiens, UniProt P08588). The format is functional.
In test [2] the target is T2, Cholecystokinin receptor type A (Homo sapiens, UniProt P32238).
T2 sequence (P32238 whole entry): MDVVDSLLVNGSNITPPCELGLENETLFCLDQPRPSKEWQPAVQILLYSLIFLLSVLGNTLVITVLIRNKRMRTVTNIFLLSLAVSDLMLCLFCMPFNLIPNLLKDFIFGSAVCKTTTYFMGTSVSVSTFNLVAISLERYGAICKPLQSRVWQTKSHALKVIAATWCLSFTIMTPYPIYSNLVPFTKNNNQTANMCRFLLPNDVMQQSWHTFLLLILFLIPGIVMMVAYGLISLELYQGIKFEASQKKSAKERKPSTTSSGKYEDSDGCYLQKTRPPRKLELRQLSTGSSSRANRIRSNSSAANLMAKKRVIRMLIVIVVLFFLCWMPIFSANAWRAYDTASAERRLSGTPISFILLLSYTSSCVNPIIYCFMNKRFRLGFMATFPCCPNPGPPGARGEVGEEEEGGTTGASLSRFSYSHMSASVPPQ

Another test concerns the target Cannabinoid receptor 1 (Homo sapiens, UniProt P21554). It is filed as functional, cell-based.
Test [3] concerns the target T3, 5-hydroxytryptamine receptor 1A (Homo sapiens, UniProt P08908).
T3 sequence (P08908 whole entry): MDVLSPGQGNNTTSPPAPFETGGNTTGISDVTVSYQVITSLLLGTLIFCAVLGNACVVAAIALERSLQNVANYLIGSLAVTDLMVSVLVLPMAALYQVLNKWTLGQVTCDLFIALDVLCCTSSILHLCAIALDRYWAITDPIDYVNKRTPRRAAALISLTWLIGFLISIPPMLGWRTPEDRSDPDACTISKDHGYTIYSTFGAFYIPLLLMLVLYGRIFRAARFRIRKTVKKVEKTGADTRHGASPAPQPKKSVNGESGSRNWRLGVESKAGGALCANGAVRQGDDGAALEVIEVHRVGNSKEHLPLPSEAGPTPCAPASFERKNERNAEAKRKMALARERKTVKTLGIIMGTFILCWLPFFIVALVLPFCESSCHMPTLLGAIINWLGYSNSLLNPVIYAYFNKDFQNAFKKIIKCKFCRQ
The format is functional, cell-based.

The next test concerns the target Motilin receptor (Homo sapiens, UniProt O43193).
Test [4] deals with 3',5'-cyclic-AMP phosphodiesterase 4D (Homo sapiens, UniProt Q08499). It is filed as functional.
Sequence of 3',5'-cyclic-AMP phosphodiesterase 4D (Q08499 whole entry): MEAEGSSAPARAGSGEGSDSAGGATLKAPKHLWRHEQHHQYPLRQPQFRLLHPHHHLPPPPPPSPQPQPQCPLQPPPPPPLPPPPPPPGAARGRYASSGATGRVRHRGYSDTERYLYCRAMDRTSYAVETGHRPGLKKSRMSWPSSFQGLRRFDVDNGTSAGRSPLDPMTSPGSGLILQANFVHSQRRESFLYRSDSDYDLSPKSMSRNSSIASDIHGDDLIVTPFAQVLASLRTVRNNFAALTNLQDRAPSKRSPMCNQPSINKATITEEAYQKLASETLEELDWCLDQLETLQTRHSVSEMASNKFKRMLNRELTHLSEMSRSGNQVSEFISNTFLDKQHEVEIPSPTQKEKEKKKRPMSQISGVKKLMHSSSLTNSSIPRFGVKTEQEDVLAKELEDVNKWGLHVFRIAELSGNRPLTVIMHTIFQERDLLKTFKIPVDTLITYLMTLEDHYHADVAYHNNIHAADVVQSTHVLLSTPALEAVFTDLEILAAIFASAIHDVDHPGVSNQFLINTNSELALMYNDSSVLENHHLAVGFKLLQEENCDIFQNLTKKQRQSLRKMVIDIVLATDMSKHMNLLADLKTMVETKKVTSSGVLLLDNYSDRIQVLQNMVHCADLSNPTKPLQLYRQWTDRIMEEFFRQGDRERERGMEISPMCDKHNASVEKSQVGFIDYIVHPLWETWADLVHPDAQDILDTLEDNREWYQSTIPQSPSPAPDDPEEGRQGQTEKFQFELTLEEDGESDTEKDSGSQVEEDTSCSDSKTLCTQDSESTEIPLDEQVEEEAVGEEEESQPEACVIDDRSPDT
Test [5] concerns the target T4, Prostaglandin G/H synthase 1 (Rattus norvegicus, UniProt Q63921).
T4 sequence (Q63921 whole entry): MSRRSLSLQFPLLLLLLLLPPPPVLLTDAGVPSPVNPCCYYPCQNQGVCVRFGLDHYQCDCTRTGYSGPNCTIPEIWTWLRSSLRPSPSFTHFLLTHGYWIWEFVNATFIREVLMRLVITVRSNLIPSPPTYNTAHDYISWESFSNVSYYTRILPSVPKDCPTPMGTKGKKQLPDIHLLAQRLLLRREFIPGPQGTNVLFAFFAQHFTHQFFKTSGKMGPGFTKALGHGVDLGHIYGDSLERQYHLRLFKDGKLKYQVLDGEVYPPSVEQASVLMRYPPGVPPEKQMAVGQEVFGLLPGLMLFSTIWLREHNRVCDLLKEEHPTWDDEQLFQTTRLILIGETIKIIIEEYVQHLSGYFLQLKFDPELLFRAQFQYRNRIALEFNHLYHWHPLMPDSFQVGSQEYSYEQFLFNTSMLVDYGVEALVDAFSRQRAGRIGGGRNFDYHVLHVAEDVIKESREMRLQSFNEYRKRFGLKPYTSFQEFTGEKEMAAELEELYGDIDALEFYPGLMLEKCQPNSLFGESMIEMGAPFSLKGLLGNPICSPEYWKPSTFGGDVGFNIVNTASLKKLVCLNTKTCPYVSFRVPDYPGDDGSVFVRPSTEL
The format is functional.

Test [6] addresses T5, Alpha-1A adrenergic receptor (Homo sapiens, UniProt P35348).
T5 sequence (P35348 whole entry): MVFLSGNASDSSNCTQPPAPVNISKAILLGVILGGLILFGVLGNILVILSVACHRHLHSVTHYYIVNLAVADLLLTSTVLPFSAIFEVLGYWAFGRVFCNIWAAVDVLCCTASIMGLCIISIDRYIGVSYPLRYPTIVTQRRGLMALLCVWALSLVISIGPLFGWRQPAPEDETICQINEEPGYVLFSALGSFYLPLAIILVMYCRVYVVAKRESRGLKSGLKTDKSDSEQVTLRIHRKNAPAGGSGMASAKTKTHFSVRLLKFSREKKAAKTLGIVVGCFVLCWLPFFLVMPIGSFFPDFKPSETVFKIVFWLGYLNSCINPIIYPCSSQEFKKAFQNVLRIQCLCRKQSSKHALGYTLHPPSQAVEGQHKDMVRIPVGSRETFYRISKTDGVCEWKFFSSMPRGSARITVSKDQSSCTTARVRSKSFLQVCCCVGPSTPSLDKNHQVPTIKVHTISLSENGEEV
The format is functional, cell-based.

The AC50 is the midpoint of the concentration-response curve, whichever way the signal moves. Low readings indicate greater potency, high ones weaker potency.
Also: assay procedure not described here.

Sequence of Beta-1 adrenergic receptor (P08588 whole entry): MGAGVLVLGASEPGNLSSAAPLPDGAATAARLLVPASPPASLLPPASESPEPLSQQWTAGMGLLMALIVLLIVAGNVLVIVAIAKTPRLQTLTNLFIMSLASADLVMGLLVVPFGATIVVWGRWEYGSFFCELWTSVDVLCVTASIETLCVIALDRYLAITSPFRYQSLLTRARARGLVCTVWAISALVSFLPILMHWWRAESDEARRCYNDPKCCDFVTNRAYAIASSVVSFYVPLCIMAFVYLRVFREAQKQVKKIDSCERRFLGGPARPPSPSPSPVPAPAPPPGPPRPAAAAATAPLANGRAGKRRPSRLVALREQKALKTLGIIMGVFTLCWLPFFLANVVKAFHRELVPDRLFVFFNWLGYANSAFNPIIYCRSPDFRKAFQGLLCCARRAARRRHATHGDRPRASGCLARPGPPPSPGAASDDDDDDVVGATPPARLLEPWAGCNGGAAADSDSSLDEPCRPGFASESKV
Sequence of Cannabinoid receptor 1 (P21554 whole entry): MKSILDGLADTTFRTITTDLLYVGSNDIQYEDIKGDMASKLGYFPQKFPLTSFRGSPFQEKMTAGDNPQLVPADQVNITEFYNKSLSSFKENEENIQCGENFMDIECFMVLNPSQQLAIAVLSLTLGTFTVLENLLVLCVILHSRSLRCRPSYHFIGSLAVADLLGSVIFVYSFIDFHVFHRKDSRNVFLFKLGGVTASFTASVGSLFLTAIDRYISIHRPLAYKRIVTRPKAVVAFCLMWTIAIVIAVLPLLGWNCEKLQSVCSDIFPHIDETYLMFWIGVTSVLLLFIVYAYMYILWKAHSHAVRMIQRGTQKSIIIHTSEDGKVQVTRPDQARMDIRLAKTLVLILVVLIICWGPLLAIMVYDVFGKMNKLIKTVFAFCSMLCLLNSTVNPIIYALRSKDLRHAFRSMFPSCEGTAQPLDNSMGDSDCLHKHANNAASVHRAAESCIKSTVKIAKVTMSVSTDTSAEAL
Sequence of Motilin receptor (O43193 whole entry): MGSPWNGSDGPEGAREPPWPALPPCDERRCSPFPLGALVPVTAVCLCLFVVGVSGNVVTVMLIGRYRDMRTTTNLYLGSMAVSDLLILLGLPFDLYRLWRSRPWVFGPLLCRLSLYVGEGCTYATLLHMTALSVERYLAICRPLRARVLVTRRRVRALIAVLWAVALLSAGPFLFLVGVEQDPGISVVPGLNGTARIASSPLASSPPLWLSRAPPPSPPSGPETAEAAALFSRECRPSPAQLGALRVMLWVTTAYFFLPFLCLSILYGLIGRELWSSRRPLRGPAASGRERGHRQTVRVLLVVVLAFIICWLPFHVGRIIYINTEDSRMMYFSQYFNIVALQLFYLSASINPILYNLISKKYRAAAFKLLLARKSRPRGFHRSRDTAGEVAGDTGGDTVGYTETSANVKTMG

Regarding `C[C@@H](NCCCc1cccc(C(F)(F)F)c1)c1cccc2ccccc12`, the AC50 on Adenosine receptor A3 was 8.1 µM; in [1], 8.8 µM; in test [2] it was more than 30 µM; at Cannabinoid receptor 1 it was more than 30 µM; in test [3] it was more than 30 µM; on Motilin receptor, 22 µM. Besides, the AC50 in test [4], in test [5] and in [6] was more than 30 µM in each case.

`Cc1onc(-c2ccccc2)c1-c1ccc(S(N)(=O)=O)cc1` [VALDECOXIB]: the AC50 on Adenosine receptor A3 was more than 30 µM; in test [1], 8.32 µM; in test [2], more than 30 µM; at Cannabinoid receptor 1, more than 30 µM; in [3], more than 10 µM; on Motilin receptor, more than 30 µM. Also, the concentration at half-maximal activity (AC50) was more than 10 µM in [4], more than 30 µM in [5] and more than 30 µM in test [6].

For `C[C@]12C=CC(=O)N[C@@H]1CC[C@@H]1[C@@H]2CC[C@]2(C)[C@@H](C(=O)Nc3cc(C(F)(F)F)ccc3C(F)(F)F)CC[C@@H]12` [DUTASTERIDE], the AC50 on Adenosine receptor A3 was more than 10 µM; in test [1] it was more than 10 µM; in [2], more than 10 µM; at Cannabinoid receptor 1, more than 30 µM; in test [3], more than 10 µM; on Motilin receptor it was more than 10 µM. Further, the concentration at half-maximal activity (AC50) is more than 30 µM in [4], more than 10 µM in [5] and more than 30 µM in test [6].

As for `CN(C)CCc1c[nH]c2ccc(Cn3cncn3)cc12` [RIZATRIPTAN], the AC50 on Adenosine receptor A3 is more than 30 µM; in test [1] it was more than 10 µM; in test [2] it was more than 30 µM; on Cannabinoid receptor 1 it was more than 30 µM; on Motilin receptor, more than 10 µM; in test [4], more than 30 µM. The half-maximal activity concentration (AC50) in test [5] and in [6] was more than 30 µM each time.

Regarding `Nc1ccc(S(=O)(=O)Nc2nccs2)cc1` [SULFATHIAZOLE], the AC50 on Adenosine receptor A3 is more than 30 µM; in test [1] it was more than 10 µM; in [2], more than 30 µM; on Cannabinoid receptor 1 it was more than 30 µM; in test [3], more than 10 µM; on Motilin receptor, more than 10 µM. In addition, the AC50 in test [4], in test [5] and in test [6] was more than 30 µM each time.

Take `COc1cc2nccc(Oc3ccc(NC(=O)C4(C(=O)Nc5ccc(F)cc5)CC4)cc3)c2cc1OC` [CABOZANTINIB]: the concentration at half-maximal activity (AC50) at Adenosine receptor A3 is 3.7 µM; in test [1], more than 30 µM; in test [2] it was more than 30 µM; on Cannabinoid receptor 1, more than 30 µM; in [3] it was more than 30 µM; on Motilin receptor it was more than 30 µM. The values for the concentration at half-maximal activity (AC50) in test [4], in test [5] and in [6] were 10 µM, more than 30 µM and more than 30 µM, respectively.

For the molecule `N[C@@H](CC(=O)N1CCn2c(nnc2C(F)(F)F)C1)Cc1cc(F)c(F)cc1F` [SITAGLIPTIN], the AC50 (on Adenosine receptor A3; in test [1]; in test [2]; at Cannabinoid receptor 1; in test [3]; on Motilin receptor) was more than 30 µM throughout. In addition, the AC50 in test [4], in [5] and in test [6] was more than 30 µM each time.

For `CC(S)C(=O)NCC(=O)O` (stereo unspecified) [TIOPRONIN], the AC50 (on Adenosine receptor A3; in test [1]; in test [2]; on Cannabinoid receptor 1; in [3]; at Motilin receptor) was more than 30 µM each time. The AC50 in test [4] was more than 30 µM; in test [5] it was 3.3 µM; in test [6], more than 30 µM.

For the molecule `O=C1CCc2cc(OCCCCc3nnnn3C3CCCCC3)ccc2N1` [CILOSTAZOL], the AC50 is 18.2 µM on Adenosine receptor A3; more than 30 µM in test [1]; more than 30 µM in test [2]; more than 30 µM on Cannabinoid receptor 1; more than 30 µM in test [3]; more than 30 µM on Motilin receptor. Also, the half-maximal activity concentration (AC50) is 23.4 µM in [4], more than 30 µM in [5] and more than 30 µM in test [6].

`COc1ccccc1Oc1c(NS(=O)(=O)c2ccc(C(C)(C)C)cc2)nc(-c2ncccn2)nc1OCCO` [BOSENTAN]: the AC50 at Adenosine receptor A3 was more than 30 µM; in [1], more than 30 µM; in test [2], more than 30 µM; on Cannabinoid receptor 1 it was more than 30 µM; in [3], more than 10 µM; on Motilin receptor, more than 10 µM. Besides, the half-maximal activity concentration (AC50) in test [4], in [5] and in [6] was more than 30 µM each time.

`C[C@H]1c2cccc(O)c2C(=O)C2=C(O)[C@]3(O)C(=O)C(C(N)=O)=C(O)[C@@H](N(C)C)[C@@H]3[C@@H](O)[C@@H]21` [DOXYCYCLINE]: the concentration at half-maximal activity (AC50) at Adenosine receptor A3 is more than 30 µM; in test [1], more than 10 µM; in [2] it was more than 30 µM; on Cannabinoid receptor 1, more than 30 µM; in test [3] it was more than 10 µM; at Motilin receptor, more than 10 µM. Also, the AC50 in test [4], in [5] and in test [6] was more than 30 µM in each case.

`CC(C)Cc1ccc(C(C)C(=O)O)cc1` (stereo unspecified) [IBUPROFEN]: the AC50 on Adenosine receptor A3 was more than 30 µM; in test [1] it was more than 10 µM; in [2], more than 30 µM; at Cannabinoid receptor 1, more than 30 µM; in test [3], more than 10 µM; at Motilin receptor, more than 10 µM. Moreover, the AC50 in test [4] and in test [6] was more than 30 µM in each case.

Regarding `COc1ccccc1OCCNCC(O)COc1cccc2[nH]c3ccccc3c12` (stereo unspecified) [CARVEDILOL], the AC50 at Adenosine receptor A3 is 18.6 µM; in test [2], more than 30 µM; on Cannabinoid receptor 1, more than 30 µM; in [3], 0.04 µM; at Motilin receptor, 7.61 µM; in test [4], more than 10 µM. The concentration at half-maximal activity (AC50) in test [5] is more than 30 µM; in test [6] it was 0.3 µM.

`CC(=O)O[C@]1(C(C)=O)CC[C@H]2[C@@H]3C=C(C)C4=CC(=O)CC[C@@H]4[C@H]3CC[C@@]21C` [NOMEGESTROL ACETATE]: the AC50 was more than 30 µM on Adenosine receptor A3; more than 30 µM in test [1]; more than 30 µM at Cannabinoid receptor 1; more than 30 µM in test [3]; 14 µM in [4]; more than 30 µM in test [5]. Moreover, the AC50 in test [6] is more than 30 µM.
